Tests used:
late watergrass [1] = assay: Test Example 1: herbicidal activity, application before weed generation under submerged conditions (Table 16, symbol A); assay type: in vivo, late watergrass (Echinochloa oryzicola); conditions: 320 g/ha applied herbicide
Outline: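 Alluvial soil was flooded to 4 cm depth, weed seeds were sown mixed and 2.5-leaf rice seedlings were transplanted. On sowing day, the compound's emulsion, diluted in water to a set dose, was applied to the water surface. Plants grew at 25–30 °C and were scored 0–5 after three weeks.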

late watergrass [2] = assay: Test Example 2: herbicidal activity, application during weed generation under submerged conditions (Table 17, symbol A); assay type: in vivo, late watergrass (Echinochloa oryzicola); conditions: AAH 320 g/ha; application during weed generation, submerged conditions
Outline: (§1)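 Wagner pot, alluvial soil, 4 cm flood; mixed sowing of all species; greenhouse 25° C.–30° C. Emulsifiable formulation, water-diluted to predetermined dose, applied to paddy water at 1–2 leaf stage. Effect rated at 3 wk using the earlier test's scoring criteria.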

Japanese bulrush = assay: Test Example 2: herbicidal activity, application during weed generation under submerged conditions (Table 17, symbol B); assay type: in vivo, Japanese bulrush (Schoenoplectus juncoides); conditions: AAH 320 g/ha; application during weed generation, submerged conditions
Outline: as §1

barnyard grass = assay: Test Example 3: herbicidal effect by foliage application, Wagner pot (Table 18, symbol H); assay type: in vivo, barnyard grass (Echinochloa crus-galli); conditions: for herbicidal effect on H (barnyard grass), rating 0-5: 320 g/ha
Outline: (§2)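 Plants were sown in alluvial soil held under 0.1–0.5 cm standing water and grown 14 days in a greenhouse at 25–30 °C. An emulsifiable formulation, water-diluted to the set dose, was then sprayed onto the foliage, and effects were scored three weeks later using previously defined criteria.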

Chinese sprangletop = assay: Test Example 3: herbicidal effect by foliage application, Wagner pot (Table 18, symbol D); assay type: in vivo, chinese sprangletop (Leptochloa chinensis); conditions: for herbicidal effect on D (Chinese sprangletop), rating 0-5: 320 g/ha
Outline: as §2

southern crabgrass [3] = assay: Test Example 4: herbicidal effect by soil treatment (Table 19, symbol F); assay type: in vivo, southern crabgrass (Digitaria ciliaris)
Outline: (§3)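 Pre-emergence style soil spray: seeds under ~1.5 cm sterilized diluvial soil received a uniform coat of emulsion diluted to the predetermined herbicide amount. Greenhouse 25–30° C; readout at week three on previously defined criteria.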

blackgrass = assay: Test Example 4: herbicidal effect by soil treatment (Table 19, symbol J); assay type: in vivo, blackgrass (Alopecurus myosuroides)
Outline: as §3

Italian ryegrass [4] = assay: Test Example 4: herbicidal effect by soil treatment (Table 19, symbol K); assay type: in vivo, Italian ryegrass (Lolium multiflorum)
Outline: as §3

windgrass [5] = assay: Test Example 4: herbicidal effect by soil treatment (Table 19, symbol L); assay type: in vivo, windgrass (Apera spica-venti)
Outline: as §3

velvetleaf = assay: Test Example 4: herbicidal effect by soil treatment (Table 19, symbol M); assay type: in vivo, velvetleaf (Abutilon theophrasti)
Outline: as §3

lambsquarters [6] = assay: Test Example 4: herbicidal effect by soil treatment (Table 19, symbol O); assay type: in vivo, lambsquarters (Chenopodium album)
Outline: as §3

persian speedwell [7] = assay: Test Example 4: herbicidal effect by soil treatment (Table 19, symbol R); assay type: in vivo, Persian speedwell (Veronica persica)
Outline: as §3

southern crabgrass [8] = assay: Test Example 5: herbicidal effect by foliage application, plastic box (Table 20, symbol F); assay type: in vivo, southern crabgrass (Digitaria ciliaris); conditions: foliage application; for effect on southern crabgrass (F): 3 weeks after application
Outline: (§4)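 Plants were sown into sterilized diluvial soil under about 1.5 cm cover and kept in a greenhouse at 25° C. to 30° C. Fourteen days on, foliage received an even spray of the diluted emulsion. Herbicidal or crop effect was judged three weeks afterwards.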

Italian ryegrass [9] = assay: Test Example 5: herbicidal effect by foliage application, plastic box (Table 20, symbol K); assay type: in vivo, Italian ryegrass (Lolium multiflorum); conditions: foliage application; for effect on Italian ryegrass (K): 3 weeks after application
Outline: as §4

windgrass [10] = assay: Test Example 5: herbicidal effect by foliage application, plastic box (Table 20, symbol L); assay type: in vivo, windgrass (Apera spica-venti); conditions: foliage application; for effect on windgrass (L): 3 weeks after application
Outline: as §4

lambsquarters [11] = assay: Test Example 5: herbicidal effect by foliage application, plastic box (Table 20, symbol O); assay type: in vivo, lambsquarters (Chenopodium album); conditions: foliage application; for effect on lambsquarters (O): 3 weeks after application
Outline: as §4

persian speedwell [12] = assay: Test Example 5: herbicidal effect by foliage application, plastic box (Table 20, symbol R); assay type: in vivo, Persian speedwell (Veronica persica); conditions: foliage application; for effect on persian speedwell (R): 3 weeks after application
Outline: as §4

[13] = amount of applied herbicide 320 g/ha
[14] = 320 g/ha, three weeks after application
[15] = 320 g/ha, evaluated three weeks after application
[16] = AAH 320 g/ha, evaluated three weeks after application

Row | SMILES | Herbicidal effect on A: late watergrass (grade 0-5) (late watergrass [1]) | herbicidal effect rating, A: late watergrass (late watergrass [2]) | herbicidal effect rating, B: Japanese bulrush (Japanese bulrush) | herbicidal effect on H (barnyard grass), rating 0-5 (barnyard grass) | herbicidal effect on D (Chinese sprangletop), rating 0-5 (Chinese sprangletop) | herbicidal effect rating, F: southern crabgrass (southern crabgrass [3]; 320 g/ha) | herbicidal effect rating, J: blackgrass (blackgrass; 320 g/ha) | herbicidal effect rating, K: Italian ryegrass (Italian ryegrass [4]; 320 g/ha) | herbicidal effect rating, L: windgrass (windgrass [5]; 320 g/ha) | herbicidal effect rating, M: velvetleaf (velvetleaf; 320 g/ha) | herbicidal effect rating, O: lambsquarters (lambsquarters [6]; 320 g/ha) | herbicidal effect rating, R: persian speedwell (persian speedwell [7]; 320 g/ha) | effect on southern crabgrass (F) (southern crabgrass [8]; 320 g/ha) | effect on Italian ryegrass (K) (Italian ryegrass [9]; 320 g/ha) | effect on windgrass (L) (windgrass [10]; 320 g/ha) | effect on lambsquarters (O) (lambsquarters [11]; 320 g/ha) | effect on persian speedwell (R) (persian speedwell [12]; 320 g/ha) | further results
1 | CCCCOc1ccc(-c2sc3ccccc3c2-c2c(OC(=O)CCC)c(C)nn(C)c2=O)cc1 [1-025] | 3 (Herbicidal rate of 40% or more and less than 70%) | 0 (Herbicidal rate of 5% or less (almost no effect)) | 3 (Herbicidal rate of 40% or more and less than 70%) | 5 (Herbicidal rate of 90% or more (almost completely withered)) | 4 (Herbicidal rate of 70% or more and less than 90%) | – | – | – | – | – | – | – | – | – | – | – | – | herbicidal effect rating, F: southern crabgrass (southern crabgrass [3]; [13]): 0 (Herbicidal rate of 5% or less (almost no effect)); herbicidal effect rating, J: blackgrass (blackgrass; [13]): 0 (Herbicidal rate of 5% or less (almost no effect)); herbicidal effect rating, K: Italian ryegrass (Italian ryegrass [4]; [13]): 0 (Herbicidal rate of 5% or less (almost no effect)); herbicidal effect rating, L: windgrass (windgrass [5]; [13]): 0 (Herbicidal rate of 5% or less (almost no effect)); herbicidal effect rating, M: velvetleaf (velvetleaf; [13]): 0 (Herbicidal rate of 5% or less (almost no effect)); herbicidal effect rating, O: lambsquarters (lambsquarters [6]; [13]): 2 (Herbicidal rate of 20% or more and less than 40%); herbicidal effect rating, R: persian speedwell (persian speedwell [7]; [13]): 3 (Herbicidal rate of 40% or more and less than 70%); herbicidal effect grade, F: southern crabgrass (southern crabgrass [8]; [14]): 3 (Herbicidal rate of 40% or more and less than 70%); herbicidal effect grade, K: Italian ryegrass (Italian ryegrass [9]; [14]): 1 (Herbicidal rate of 5% or more and less than 20%); herbicidal effect grade, L: windgrass (windgrass [10]; [14]): 0 (Herbicidal rate of 5% or less (almost no effect)); herbicidal effect grade, O: lambsquarters (lambsquarters [11]; [14]): 4 (Herbicidal rate of 70% or more and less than 90%); herbicidal effect grade, R: persian speedwell (persian speedwell [12]; [14]): 5 (Herbicidal rate of 90% or more (almost completely withered))
2 | CCCC(=O)Oc1c(C)nn(C)c(=O)c1-c1c(-c2ccc(OCC)cc2)sc2ccc(F)cc12 [2-031] | 3 (Herbicidal rate of 40% or more and less than 70%) | 4 (Herbicidal rate of 70% or more and less than 90%) | 3 (Herbicidal rate of 40% or more and less than 70%) | 5 (Herbicidal rate of 90% or more (almost completely withered)) | 4 (Herbicidal rate of 70% or more and less than 90%) | 1 (Herbicidal rate of 5% or more and less than 20%) | 0 (Herbicidal rate of 5% or less (almost no effect)) | 0 (Herbicidal rate of 5% or less (almost no effect)) | 0 (Herbicidal rate of 5% or less (almost no effect)) | 3 (Herbicidal rate of 40% or more and less than 70%) | 4 (Herbicidal rate of 70% or more and less than 90%) | 4 (Herbicidal rate of 70% or more and less than 90%) | 0 (Herbicidal rate of 5% or less (almost no effect)) | 0 (Herbicidal rate of 5% or less (almost no effect)) | 0 (Herbicidal rate of 5% or less (almost no effect)) | 5 (Herbicidal rate of 90% or more (almost completely withered)) | 5 (Herbicidal rate of 90% or more (almost completely withered)) | –
3 | CCCC(=O)Oc1c(C)nn(C)c(=O)c1-c1c(-c2ccc3c(c2)OCO3)sc2ccc(F)cc12 [2-091] | 3 (Herbicidal rate of 40% or more and less than 70%) | 0 (Herbicidal rate of 5% or less (almost no effect)) | 3 (Herbicidal rate of 40% or more and less than 70%) | 3 (Herbicidal rate of 40% or more and less than 70%) | 3 (Herbicidal rate of 40% or more and less than 70%) | 2 (Herbicidal rate of 20% or more and less than 40%) | 0 (Herbicidal rate of 5% or less (almost no effect)) | 3 (Herbicidal rate of 40% or more and less than 70%) | 0 (Herbicidal rate of 5% or less (almost no effect)) | 5 (Herbicidal rate of 90% or more (almost completely withered)) | 5 (Herbicidal rate of 90% or more (almost completely withered)) | 4 (Herbicidal rate of 70% or more and less than 90%) | – | – | – | – | – | herbicidal effect on F: southern crabgrass (southern crabgrass [8]; [15]): 2 (Herbicidal rate of 20% or more and less than 40%); herbicidal effect on K: Italian ryegrass (Italian ryegrass [9]; [15]): 4 (Herbicidal rate of 70% or more and less than 90%); herbicidal effect on L: windgrass (windgrass [10]; [15]): 0 (Herbicidal rate of 5% or less (almost no effect)); herbicidal effect on O: lambsquarters (lambsquarters [11]; [15]): 5 (Herbicidal rate of 90% or more (almost completely withered)); herbicidal effect on R: persian speedwell (persian speedwell [12]; [15]): 5 (Herbicidal rate of 90% or more (almost completely withered))
4 | Cc1nn(C)c(=O)c(-c2c(-c3ccc(OC(F)F)cc3)sc3ccc(F)cc23)c1OC(=O)C1CCCC1 [2-280] | 5 (Herbicidal rate of 90% or more (almost completely withered)) | 4 (Herbicidal rate of 70% or more and less than 90%) | 3 (Herbicidal rate of 40% or more and less than 70%) | – | – | – | – | – | – | – | – | – | – | – | – | – | – | herbicidal effect on H: barnyard grass (barnyard grass; [13]): 5 (Herbicidal rate of 90% or more (almost completely withered)); herbicidal effect on D: Chinese sprangletop (Chinese sprangletop; [13]): 3 (Herbicidal rate of 40% or more and less than 70%); herbicidal effect on F: southern crabgrass (southern crabgrass [3]; [13]): 0 (Herbicidal rate of 5% or less (almost no effect)); herbicidal effect on J: blackgrass (blackgrass; [13]): 1 (Herbicidal rate of 5% or more and less than 20%); herbicidal effect on K: Italian ryegrass (Italian ryegrass [4]; [13]): 5 (Herbicidal rate of 90% or more (almost completely withered)); herbicidal effect on L: windgrass (windgrass [5]; [13]): 0 (Herbicidal rate of 5% or less (almost no effect)); herbicidal effect on M: velvetleaf (velvetleaf; [13]): 3 (Herbicidal rate of 40% or more and less than 70%); herbicidal effect on O: lambsquarters (lambsquarters [6]; [13]): 5 (Herbicidal rate of 90% or more (almost completely withered)); herbicidal effect on R: persian speedwell (persian speedwell [7]; [13]): 4 (Herbicidal rate of 70% or more and less than 90%); F: southern crabgrass, herbicidal effect (criteria 0-5) (southern crabgrass [8]; [16]): 3 (Herbicidal rate of 40% or more and less than 70%); K: Italian ryegrass, herbicidal effect (criteria 0-5) (Italian ryegrass [9]; [16]): 5 (Herbicidal rate of 90% or more (almost completely withered)); L: windgrass, herbicidal effect (criteria 0-5) (windgrass [10]; [16]): 3 (Herbicidal rate of 40% or more and less than 70%); O: lambsquarters, herbicidal effect (criteria 0-5) (lambsquarters [11]; [16]): 5 (Herbicidal rate of 90% or more (almost completely withered)); R: persian speedwell, herbicidal effect (criteria 0-5) (persian speedwell [12]; [16]): 5 (Herbicidal rate of 90% or more (almost completely withered))
5 | C=Cc1ccc(-c2sc3ccc(F)cc3c2-c2c(O)c(C)nn(C)c2=O)cc1 [2-018] | 0 (Herbicidal rate of 5% or less (almost no effect)) | 3 (Herbicidal rate of 40% or more and less than 70%) | 2 (Herbicidal rate of 20% or more and less than 40%) | 5 (Herbicidal rate of 90% or more (almost completely withered)) | 4 (Herbicidal rate of 70% or more and less than 90%) | 0 (Herbicidal rate of 5% or less (almost no effect)) | 0 (Herbicidal rate of 5% or less (almost no effect)) | 4 (Herbicidal rate of 70% or more and less than 90%) | 2 (Herbicidal rate of 20% or more and less than 40%) | 1 (Herbicidal rate of 5% or more and less than 20%) | 4 (Herbicidal rate of 70% or more and less than 90%) | 4 (Herbicidal rate of 70% or more and less than 90%) | 1 (Herbicidal rate of 5% or more and less than 20%) | 4 (Herbicidal rate of 70% or more and less than 90%) | 5 (Herbicidal rate of 90% or more (almost completely withered)) | 5 (Herbicidal rate of 90% or more (almost completely withered)) | 5 (Herbicidal rate of 90% or more (almost completely withered)) | –

From patent US20230085307A1, “PYRIDAZINONE COMPOUND AND HERBICIDE” (NISSAN CHEMICAL CORPORATION, priority 2019, published 2023)
